Results on five molecules are retold here after ChEMBL document CHEMBL1125035, “Synthesis and biological activity of novel vitamin D analogues: 24,24-difluoro-25-hydroxy-26,27-dimethylvitamin D3 and 24,24-difluoro-1 alpha,25-dihydroxy-26,27-dimethylvitamin D3” (1990).

For one test, the species on record is Gallus gallus. Kind of test: Bind to chick intestinal Vitamin D3 receptor for 1,25-(OH)2-D3.
The target in test [1] is T1, Vitamin D-binding protein (Rattus norvegicus) (UniProt P04276).
T1 sequence (whole entry): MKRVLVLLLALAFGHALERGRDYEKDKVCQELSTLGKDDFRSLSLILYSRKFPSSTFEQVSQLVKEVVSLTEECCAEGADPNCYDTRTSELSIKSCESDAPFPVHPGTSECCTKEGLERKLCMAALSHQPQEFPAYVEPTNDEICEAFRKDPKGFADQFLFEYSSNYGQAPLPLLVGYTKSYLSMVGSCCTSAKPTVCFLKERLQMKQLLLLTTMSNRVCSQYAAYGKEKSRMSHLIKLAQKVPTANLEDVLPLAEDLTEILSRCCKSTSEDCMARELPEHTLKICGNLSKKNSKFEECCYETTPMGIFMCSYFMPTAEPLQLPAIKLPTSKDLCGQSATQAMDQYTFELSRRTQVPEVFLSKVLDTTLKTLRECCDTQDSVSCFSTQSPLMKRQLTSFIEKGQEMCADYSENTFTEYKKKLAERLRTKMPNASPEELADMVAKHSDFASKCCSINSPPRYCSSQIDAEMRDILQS
Kind of test: Displacement of [3H]25-(OH)-D3 from rat plasma Vitamin D binding protein. The format is cell-free. (Displacement assays read how much labelled ligand stays bound in the presence of the test substance.)

For test [2], the species on record is Rattus norvegicus. Kind of test: Calcium binding protein induction in duodenal organ culture at a concentration of 0.1 nM in Male Albino rats. Type of test: functional.
The species named for test [3] is Rattus norvegicus. Kind of test: Calcium binding protein induction in duodenal organ culture at a concentration of 10 nM in Male Albino rats. The format is functional.
For test [4], the species on record is Rattus norvegicus. Kind of test: Calcium binding protein induction in duodenal organ culture at a concentration of 0.01 nM in Male Albino rats. Type of test: functional.
The species named for test [5] is Rattus norvegicus. Kind of test: Calcium binding protein induction in duodenal organ culture at a concentration of 1 nM in Male Albino rats. The format is functional.
A short description of test [6]: Relative potency against calcium binding protein induction in duodenal organ culture at a concentration of 0.01 nM compared to 1,25-(OH)2-D3 in Male Albino rats. Type of test: functional.

For the molecule `C=C1CC[C@H](O)C/C1=C/C=C1\CCC[C@]2(C)[C@@H]([C@H](C)CCC[C@@](C)(O)CO)CC[C@@H]12`, the B50 in the test listed under Gallus gallus turned out to be 4300 nM; in test [1] it was 4.03 nM.
Take `C=C1CC[C@H](O)C/C1=C/C=C1\CCC[C@]2(C)[C@@H]([C@H](C)CCCC(C)C)CC[C@@H]12`: the B50 in test [1] was 338 nM.
Turning to `C=C1CC[C@H](O)C/C1=C/C=C1\CCC[C@]2(C)[C@@H]([C@H](C)CC[C@@H](O)C(C)(C)O)CC[C@@H]12`, the B50 stood at 804 nM in the test listed under Gallus gallus and 3.22 nM in test [1].
In the same order, the values of `C=C1/C(=C/C=C2\CCC[C@]3(C)[C@@H]([C@H](C)CCCC(C)C)CC[C@@H]23)C[C@@H](O)C[C@@H]1O` are 139 nM and 848 nM.
Take `C=C1/C(=C/C=C2\CCC[C@]3(C)[C@@H]([C@H](C)CCC(F)(F)C(O)(CC)CC)CC[C@@H]23)C[C@@H](O)C[C@@H]1O`: the “Ca2+ binding protein” value was 21.7 ug (100mg of duodenum)-1 in the test filed under Rattus norvegicus [2], 94 ug (100mg of duodenum)-1 in the test listed under Rattus norvegicus [3], 11.9 ug (100mg of duodenum)-1 in the test listed under Rattus norvegicus [4] and 49.5 ug (100mg of duodenum)-1 in the test filed under Rattus norvegicus [5]. In test [6], the “Relative potency” value stood at 325.
